Where two headings read alike, the source gives them in different places.
How the values were obtained:
[1] = tested on: Tomato thrips; assay: In vitro bio-efficacy, Tomato thrips (Ex. 57); conditions: Dose 0.8 ml/lit
[2] = tested on: tomato seedlings; assay: Response of tomato plants, greenhouse growth (Ex. 30); assay type: in vivo; conditions: tomato seedlings, dose 1 ml/gm/lit; for Plant Height 5th Day / Stem Girth 5th Day / CCI 5th Day: 5th day after application; for Plant Height 10th Day / Stem Girth 10th Day / CCI 10th Day: 10th day after application; for Plant Height % Increase over pre on 10th Day / Stem Girth % Increase over pre on 10th Day / CCI % Increase over pre on 10th Day / Root Length (cm) 10th Day / Root Length % Increase over control: 10th day; for Root Length % Increase over control: vs water control
[3] = tested on: Mealy Bug; conditions: mealy bug on cotton plants, green house, dose 1 ml/gm/lit. spray; for % Mortality at 48 Hrs. / Total No. of dead insect at 48 Hrs.: 48 hrs after application; for % Corrected Mortality at 48 Hrs.: corrected for water control
[4] = tested on: Alternaria alternata; assay: In vitro poisoned food technique against fungus (Ex. 20); assay type: cell-based
[5] = tested on: Helicoverpa armigera; conditions: Helicoverpa armigera 3rd instar on chickpea plants, dose 1 ml/gm/lit. spray; for % Mortality at 72 Hrs.: 72 hrs after application; for % Corrected Mortality at 72 Hrs.: corrected for water control
[6] = tested on: Helicoverpa armigera; conditions: Helicoverpa armigera on okra fruits, dose 1 ml/gm/lit., 72 Hrs.; for Total No. of dead insect at 72 Hrs.: 10 insects/treatment, 4 replications; for % Corrected Mortality at 72 Hrs.: corrected for water control
[7] = tested on: Thrips; assay: whole plant or invertebrate; conditions: in Gossypium hirsutum, 48 h
[8] = tested on: chili seedlings; assay: Response of chili plants, greenhouse growth (Ex. 31); assay type: in vivo; conditions: chili seedlings, dose 1 ml/gm/lit; for CCI 5th Day / Plant Height (cm) 5th Day: 5th day after application; for CCI 10th Day / Plant Height (cm) 10th Day: 10th day after application; for CCI % Increase over pre on 10th Day / Plant Height % Increase over pre on 10th Day / Root Lenght (cm) 10th Day / Stem Girth % Increase over pre on 10th Day / Root Lenght % Increase over control: 10th day; for Root Lenght % Increase over control: vs water control
[9] = tested on: Aphid; assay: whole plant or invertebrate; conditions: 48 h
[10] = tested on: Mite; conditions: mite on okra plants, green house, dose 1 ml/gm/lit. spray; for % Mortality at 48 Hrs. / Total No. of dead insect at 48 Hrs.: 48 hrs after application; for % Corrected Mortality at 48 Hrs.: corrected for water control
[11] = tested on: Thrips; conditions: Thrips on cotton leaves; dose 1 ml/gm/lit.; 10 insects/treatment; 48 hrs after application
[12] = tested on: Spodoptera litura; assay: whole plant or invertebrate; conditions: 72 h
[13] = tested on: Aphid; conditions: for Total No. of dead insect at 48 Hrs.: 10 insects/treatment, 4 replications, cotton leaves
[14] = tested on: Thrips; conditions: thrips on cotton plants, greenhouse, dose 1 ml/gm/lit. spray; for % Mortality at 48 Hrs. / Total No. of dead insect at 48 Hrs.: 48 hrs after application; for % Corrected Mortality at 48 Hrs.: corrected for water control
[15] = tested on: Alternaria alternata; assay: Alternaria leaf spot/blight on inoculated tomato plants (Ex. 28); assay type: in vivo; conditions: tomato plants, Alternaria alternata; after 7 days; dose 1 ml/gm/lit
[16] = tested on: Mealy Bug; conditions: Mealy Bug on cotton leaves, dose 1 ml/gm/lit., 48 Hrs.; for Total No. of dead insect at 48 Hrs.: 10 insects/treatment, 4 replications; for % Corrected Mortality at 48 Hrs.: corrected for water control
[17] = cited from earlier work
[18] = tested on: Spodoptera litura; conditions: Spodoptera litura on castor leaves; dose 1 ml/gm/lit.; 10 insects/treatment; 72 hrs after application
[19] = tested on: Mite; conditions: for Total No. of dead insect at 48 Hrs.: 10 insects/treatment, 4 replications, okra leaves
[20] = tested on: Spodoptera litura; conditions: Spodoptera litura 3rd instar on cabbage plants, dose 1 ml/gm/lit. spray; for % Mortality at 72 Hrs.: 72 hrs after application; for % Corrected Mortality at 72 Hrs.: corrected for water control
[21] = tested on: Aphid; conditions: Aphids on cotton plants, green house; dose 1 ml/gm/lit.; 10 insects/plant, 10 plants/treatment; 48 hrs
[22] = poisoned food technique, PDA medium, dose 1 ml/gm/lit., after seven days
[23] = read-out: % Corrected Mortality at 48 Hrs.
[24] = read-out: % Mortality at 48 Hrs.
[25] = read-out: % Corrected Mortality at 72 Hrs.
[26] = read-out: % Mortality at 72 Hrs.
[27] = Table 13, descriptive, no test described

CON=CNC(=O)c1ccc(C2=NOC(c3cc(Cl)cc(Cl)c3)(C(F)(F)F)C2)cc1C (stereo not shown) [Fluxametamide]
% Corrected Mortality at 72 hrs. [1]: 57.89%
% Mortality at 72 hrs. [1]: 60.0%
Total no of dead insects at 72 hrs. [1]: 24.0

Cc1ccc(C(C)C)c(O)c1 [Thymol]
Plant Height 5th Day [2]: 6.81 cm
Stem Girth 5th Day [2]: 1.90 mm
Plant Height 10th Day [2]: 7.62 cm
Stem Girth 10th Day [2]: 2.53 mm
Plant Height % Increase over pre on 10th Day [2]: 30.48%
Stem Girth % Increase over pre on 10th Day [2]: 61.42%
CCI 5th Day [2]: 14.12
CCI % Increase over pre on 10th Day [2]: 22.87%
Root Length (cm) 10th Day [2]: 4.82 cm
CCI 10th Day [2]: 15.42
Root Length % Increase over control [2]: 44.89%
% Mortality at 48 Hrs. [3]: 55.00%
Total No. of dead insect at 48 Hrs. [3]: 55.00
% Corrected Mortality at 48 Hrs. [3]: 50.00%
Mean colony Diameter (mm) [4, 22]: 51.50 mm
inhibition of growth at 1 mL or g/L ([4]; poisoned food technique, PDA medium, dose 1 ml/gm/lit., after seven days, vs untreated control, read-out: % Inhibition of growth): 41.5%
% Mortality at 72 Hrs. [5]: 62.50%
% Corrected Mortality at 72 Hrs. [5]: 62.50%
Total No. of dead insect at 72 Hrs. [6]: 6.50
% Mortality at 72 Hrs. [6]: 65.00%
% Corrected Mortality at 72 Hrs. [6]: 65.00%
mortality at 1 mL or g/L [7, 23]: 22.9%
mortality at 1 mL or g/L [7, 24]: 32.5%
CCI 5th Day [8]: 13.80
Plant Height (cm) 5th Day [8]: 6.13 cm
CCI % Increase over pre on 10th Day [8]: 75.74%
Plant Height % Increase over pre on 10th Day [8]: 58.04%
Root Lenght (cm) 10th Day [8]: 3.77 cm
Stem Girth % Increase over pre on 10th Day [8]: 51.36%
CCI 10th Day [8]: 14.85
Plant Height (cm) 10th Day [8]: 7.27 cm
Root Lenght % Increase over control [8]: 37.87%
mortality at 1 mL or g/L [9, 23]: 55.9%
mortality at 1 mL or g/L [9, 24]: 62.5%
% Mortality at 48 Hrs. [10]: 62.50%
Total No. of dead insect at 48 Hrs. [10]: 62.50
% Corrected Mortality at 48 Hrs. [10]: 60.53%
Total No. of dead insect at 48 Hrs. [11]: 3.25
mortality at 1 mL or g/L [12, 25]: 65.8%
mortality at 1 mL or g/L [12, 26]: 67.5%
Total No. of dead insect at 48 Hrs. ([13]; Dose 1 ml/gm/lit.): 6.25
% Corrected Mortality at 48 Hrs. ([13]; in vivo): 57.14%
% Mortality at 48 Hrs. [14]: 35.00%
Total No. of dead insect at 48 Hrs. [14]: 35.00
% Corrected Mortality at 48 Hrs. [14]: 27.78%
% Disease reduction over Control [15]: 61.16%
Total No. of dead insect at 48 Hrs. [16]: 5.50
% Mortality at 48 Hrs. [16]: 55.00%
% Corrected Mortality at 48 Hrs. [16]: 52.63%
Antioxidant Activity - Mode of action [17, 27]: Antioxidant and food
Bactericidal Activity - Mode of action [17, 27]: Growth inhibition
Insecticidal Activities - Mode of action [17, 27]: Inhibited the growth,
Virucidal Activity - Mode of action [17, 27]: Inhibit virus replication
Phytotonic Effect ([17]; Table 13, effect on plants, descriptive): Improves
Total No. of dead insect at 72 Hrs. [18]: 6.75
Total No. of dead insect at 48 Hrs. ([19]; Dose 1 ml/gm/lit.): 6.00
% Corrected Mortality at 48 Hrs. ([19]; in vivo): 56.76%
% Mortality at 48 Hrs. ([19]; in vivo): 60.00%
% Mortality at 72 Hrs. [20]: 65.00%
% Corrected Mortality at 72 Hrs. [20]: 63.16%
Total No. of dead insect at 48 Hrs. [21]: 62.50

C/C=C\c1cc(OC)c(OC)cc1OC [β-Asarone]
Plant Height 5th Day [2]: 6.72 cm
Stem Girth 5th Day [2]: 1.72 mm
Plant Height 10th Day [2]: 7.24 cm
Stem Girth 10th Day [2]: 2.45 mm
Plant Height % Increase over pre on 10th Day [2]: 27.69%
Stem Girth % Increase over pre on 10th Day [2]: 56.32%
CCI 5th Day [2]: 13.45
CCI % Increase over pre on 10th Day [2]: 29.08%
Root Length (cm) 10th Day [2]: 4.43 cm
CCI 10th Day [2]: 14.56
Root Length % Increase over control [2]: 33.31%
% Mortality at 48 Hrs. [3]: 35.00%
Total No. of dead insect at 48 Hrs. [3]: 35.00
% Corrected Mortality at 48 Hrs. [3]: 27.78%
inhibition of growth at 1 mL or g/L ([4]; […]): 54%
Mean colony Diameter (mm) [4, 22]: 40.50 mm
% Mortality at 72 Hrs. [5]: 52.50%
% Corrected Mortality at 72 Hrs. [5]: 52.50%
Total No. of dead insect at 72 Hrs. [6]: 5.00
% Mortality at 72 Hrs. [6]: 50.00%
% Corrected Mortality at 72 Hrs. [6]: 50.00%
mortality at 1 mL or g/L [7, 23]: 62.9%
mortality at 1 mL or g/L [7, 24]: 67.5%
CCI 5th Day [8]: 9.58
Plant Height (cm) 5th Day [8]: 5.70 cm
CCI % Increase over pre on 10th Day [8]: 40.02%
Plant Height % Increase over pre on 10th Day [8]: 51.59%
Root Lenght (cm) 10th Day [8]: 3.17 cm
Stem Girth % Increase over pre on 10th Day [8]: 40.46%
CCI 10th Day [8]: 12.49
Plant Height (cm) 10th Day [8]: 7.61 cm
Root Lenght % Increase over control [8]: 16.00%
mortality at 1 mL or g/L [9, 23]: 64.7%
mortality at 1 mL or g/L [9, 24]: 70%
% Mortality at 48 Hrs. [10]: 22.50%
Total No. of dead insect at 48 Hrs. [10]: 22.50
% Corrected Mortality at 48 Hrs. [10]: 18.42%
Total No. of dead insect at 48 Hrs. [11]: 6.75
mortality at 1 mL or g/L [12, 25]: 57.9%
mortality at 1 mL or g/L [12, 26]: 60%
Total No. of dead insect at 48 Hrs. ([13]; Dose 1 ml/gm/lit.): 7.25
% Corrected Mortality at 48 Hrs. ([13]; Dose 1 ml/gm/lit., 48 hrs): 68.57%
% Mortality at 48 Hrs. ([13]; Dose 1 ml/gm/lit., 48 hrs): 72.50%
% Mortality at 48 Hrs. [14]: 65.00%
Total No. of dead insect at 48 Hrs. [14]: 65.00
% Corrected Mortality at 48 Hrs. [14]: 61.11%
% Disease reduction over Control [15]: 64.46%
Total No. of dead insect at 48 Hrs. [16]: 3.00
% Mortality at 48 Hrs. [16]: 30.00%
% Corrected Mortality at 48 Hrs. [16]: 26.32%
Antifungal Activity - Mode of action [17, 27]: Completely inhibited
Insecticidal Activities - Mode of action [17, 27]: Reductions in oviposition
Nematicidal Activity - Mode of action [17, 27]: Act as potent nematicide
Total No. of dead insect at 72 Hrs. [18]: 6.00
Total No. of dead insect at 48 Hrs. ([19]; Dose 1 ml/gm/lit.): 2.50
% Corrected Mortality at 48 Hrs. ([19]; Dose 1 ml/gm/lit., 48 hrs): 18.92%
% Mortality at 48 Hrs. ([19]; Dose 1 ml/gm/lit., 48 hrs): 25.00%
% Mortality at 72 Hrs. [20]: 55.00%
% Corrected Mortality at 72 Hrs. [20]: 52.63%
Total No. of dead insect at 48 Hrs. [21]: 70.00

Source: patent US20250351832A1, “PHYTOCHEMICALS AS BIOPESTICIDES AND BIOSTIMULANTS” (KAY BEE BIO ORGANICS PVT. LTD., priority 2024, published 2025)
